Experimental data from ChEMBL document CHEMBL1129756, “Conformationally restricted TRH analogs: a probe for the pyroglutamate region” (J Med Chem, 1996).

Tests used:
[1] = biological target: T1, Thyrotropin-releasing hormone receptor (Mus musculus, UniProt P21761); assay: Binding affinity against TRH-R receptor in AtT-20 mouse pituitary tumor cells
T1 sequence (P21761 whole entry): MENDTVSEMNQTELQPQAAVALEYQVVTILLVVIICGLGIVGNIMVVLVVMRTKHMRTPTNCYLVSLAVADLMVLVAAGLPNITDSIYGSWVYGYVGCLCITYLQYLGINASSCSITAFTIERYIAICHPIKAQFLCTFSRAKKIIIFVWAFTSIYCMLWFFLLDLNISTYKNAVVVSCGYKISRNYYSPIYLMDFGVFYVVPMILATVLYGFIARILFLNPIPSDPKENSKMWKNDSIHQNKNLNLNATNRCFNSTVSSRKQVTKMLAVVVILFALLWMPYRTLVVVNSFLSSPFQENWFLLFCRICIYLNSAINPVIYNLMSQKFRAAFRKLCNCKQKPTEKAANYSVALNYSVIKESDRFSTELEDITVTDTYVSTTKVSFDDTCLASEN

[2] = biological target: T1, Thyrotropin-releasing hormone receptor; assay: Effective concentration required to activate TRH-R receptor in AtT-20 mouse pituitary tumor cells

Ki [1] [nM]	EC50 [2] [nM]	SMILES
4400	290	NC(=O)[C@@H]1CCCN1C(=O)[C@H](Cc1ccccc1)N1CC[C@]2(CCC(=O)N2)C1=O
1.2		Cn1cnc(C[C@H](NC(=O)[C@@H]2CCC(=O)N2)C(=O)N2CCC[C@H]2C(N)=O)c1
	0.68	NC(=O)[C@@H]1CCCN1C(=O)[C@H](Cc1cnc[nH]1)NC(=O)[C@@H]1CCC(=O)N1 [PROTIRELIN]
